In article PMC9610897, “Cationic Perylene Antivirals with Aqueous Solubility for Studies In Vivo” (Pharmaceuticals, 2022):
Where two headings read alike, the source gives them in different places.

Experiments:
[1] = Stability in stomach acid-mimicking 0.16 M aqueous HCl (TLC); assay type: physicochemical
Procedure: Since in vivo evaluation of the leader compound in mouse model involves intragastric administration, stability in stomach acid-mimicking 0.16 M aqueous HCl was assessed. The compound was stable, with slight signs of decomposition as determined by thin-layer chromatography (TLC) for at least 4 h, which exceeds the average residence time of drugs in the stomach. Then, stability in fetal bovine serum (FBS) was evaluated.

in vitro = in vitro ADME; details: bovine, 80% FBS in 0.05 M PBS pH 7.4, 37 °C, read-out: In vitro FBS half-life (t1/2)
Procedure: In vitro stability of 10 was studied in Gibco FBS (Thermo-Fisher Scientific, USA) by following the reported procedure with minor modifications. A 10 mM solution of the compound in DMSO (20 μL) was added to 80% FBS in 0.05 M PBS (pH 7.4) at 37 °C to yield the final concentration of 200 μM. The assays were carried out in triplicate in a water bath at 37 °C. Samples (100 μL) were taken at 0, 15, 30, 45, 60, 90, 120, 180, 240, and 300 min and added to 400 μL acetonitrile in order to deproteinize the plasma. The samples were then shaken for 1 min and centrifuged at 37 °C at 15,000 rpm for 5 min. The supernatants were analyzed by HPLC (detection at 530 nm). AUC values were determined and averaged from three independent experiments. In vitro serum half-life (t1/2) was calculated using the equation t1/2 = 0.693/b, where b is the slope found by linear fitting of the negative natural logarithm of the fraction remaining (AUC0-300/AUC0) vs. incubation time.

SARS-CoV-2 = SARS-CoV-2 cytopathic effect (CPE) inhibition test; assay type: cell-based, strain PIK35; details: Severe acute respiratory syndrome coronavirus 2, 120 h; CPE inhibition in Vero cells, 5 days, M ± SD; read-out: Antiviral Activity, EC50 ± SD, SARS-CoV-2
From the text: (§1) The green monkey kidney (Vero) cell line originated from WHO Biologicals, Switzerland (10–87), and the Madin-Darby canine kidney (MDCK) cell line was obtained from the American Type Culture Collection (ATCC CCL-34).
(§2) Viruses and strains used in the present work were severe acute respiratory syndrome-related coronavirus 2 (SARS-CoV-2, strain PIK35, GISAID EPI_ISL_428852), Chikungunya virus (CHIKV, strain Nic, GenBank IDs MN271691-2) and influenza A virus (H1N1, strain A/PR/8/34, ATCC VR-95).
The procedure was described previously. In brief, two-fold dilutions of the compounds were prepared in Dulbecco MEM (Chumakov FSC R&D IBP RAS, Russia) and mixed 1:1 with a virus suspension containing 50–200 TCID50 and incubated for 1 h at 37 °C in a CO2 incubator. The final concentration series started from 100 μM. Then, compound-virus mixtures were added to confluent Vero cell monolayers in 2 replicates. After incubation at 37 °C in a CO2-incubator for 5 days, CPE signs (cell death) were assessed via microscope, and 50% effective concentration (EC50) (compound concentration required to decrease CPE by 50%) was calculated using the Karber method.

[2] = Cell viability assay in Vero cells (resazurin); assay type: cell-based; details: green monkey, 5 d, read-out: Cytotoxicity, CC50 ± SD, Vero
Procedure: as §1
Two-fold dilutions of the compounds (starting from 100 μM) were prepared in DMEM (Chumakov FSC R&D IBP RAS, Russia) and added to confluent cell monolayers. After 5 days of incubation (37 °C, 5% CO2), the cultural supernatant was substituted with a resazurin solution (25 μg/mL), followed by 4 h incubation (37 °C, 5% CO2). Then, 20 µL of 10% SDS were added to stop the reaction. Fluorescence intensity was measured with Promega GloMax-Multi Detection System (Ex525/Em580–640). Cells treated with dilutions of the compounds and DMSO, but not resazurin, were used to subtract the background fluorescence. All experimental procedures were performed in two replicates. Fluorescence curves were analyzed with Microsoft Excel 2013. 50% Cytotoxic concentrations (CC50) were calculated.

CHIKV = CHIKV cytopathic effect (CPE) inhibition test; assay type: cell-based, Chikungunya virus (CHIKV, strain Nic); details: Chikungunya virus, 120 h; CPE inhibition in Vero cells, 5 days, M ± SD; read-out: Antiviral Activity, EC50 ± SD, CHIKV
[3] = tested on: influenza A/California/7/09/MA virus; assay type: in vivo, BALB/c mice; details: for Average Life Expectancy (M ± SEM): BALB/c mice
[4] = Solubility in water (photometry); assay type: physicochemical
Procedure: The samples were dissolved in DMSO, diluted in series, and photometrically analyzed. The average molar absorption coefficient was calculated from the obtained optical densities of calibration solutions at the absorption maxima. Solubility values were determined as previously described by adding weighed amounts of compounds to distilled water followed by sonication (30 min), centrifugation (12,000 rpm, 10 min), and photometry.

[5] = Cell viability assay in MDCK cells (MTT); assay type: cell-based, canine; details: dog, read-out: Cytotoxicity, CC50 ± SD, MDCK
Procedure: as §1
Compound solutions were prepared in DMSO (20 mg/mL), and then 2-fold dilutions in cultural medium were prepared starting from 1000 μg/mL. One-day MDCK cell monolayers (over 95% confluency) in 96-well plates ([…]) were washed twice with serum-free alpha-MEM (Thermo-Fisher Scientific, USA) and treated with 100 μL of compound dilutions in 2 replicates. The plates were then incubated for 24 h at 37 °C in a CO2 incubator. Cell viability was assessed using the tetrazolium test (MTT, ApplyChem). Optical density was measured on a Wallac 1420 Victor2 microplate reader (Perkin Elmer, Ramsey, MN, USA) at 535 nm, then CC50 values were calculated.

IAV = IAV virus yield reduction assay; assay type: cell-based, influenza A virus (H1N1, strain A/PR/8/34); details: Influenza A virus; virus yield reduction in MDCK cells, MOI 1, 24 h, M ± SD; read-out: Antiviral Activity, EC50 ± SD, IAV
From the text: as §1, §2
Compound solutions were prepared in DMSO (20 mg/mL). The compounds were weighed in 2 mg amounts and dissolved in 100 μL of DMSO. Then, a series of 3-fold dilutions was prepared, starting from 300 µg/mL, in a cultural medium. The MDCK cell monolayer was treated with compound dilutions and incubated for 1 h in a CO2 incubator at 37 °C. Untreated cells were used as negative control. Afterward, the virus was added (MOI 1), and cells were incubated for 24 h at 37 °C in a CO2 incubator. After incubation, the culture medium was collected, and viral yields were determined by titration. In brief, a series of 10-fold dilutions (10^−7–10^−1) of viral supernatants were prepared in a cultural medium and applied to daily MDCK cell monolayers. Infected cells were incubated for 72 h at 37 °C in a CO2 incubator. The presence of the virus in the culture supernatants was determined using the hemagglutination assay with a 1% suspension of chicken erythrocytes. Viral titer was calculated according to the Reed-and-Muench method and was expressed as 50% tissue infectious doses (TID50) per 100 μL of volume. Inhibition (%) was calculated by comparison with non-treated cells, and EC50 was calculated from inhibitory curves.

For `C[n+]1c(C=Cc2ccc3c4cccc5cccc(c6cccc2c63)c54)sc2ccccc21.[Cl-]` [Compound 10, 3-Methyl-2-(2-(perylen-3-yl)vinyl)benzo[d]thiazol-3-ium chloride], the “Stability in 0.16 M aqueous HCl, time stable with slight signs of decomposition” value [1] was “at least 4 h”, the half-life at 200 μM (in vitro) was 2.78 h and the EC50 (SARS-CoV-2) was 1.45 ± 0.95 µM. The CC50 at 5 days [2] was > 100 µM, the EC50 (CHIKV) was 0.99 ± 0.15 µM and the “Average Life Expectancy (M ± SEM)” value ([3]; 0.5 mg/kg intragastric) was 8.6 ± 1.0 days. The “Protective Index (PI)” value ([3]; 0.5 mg/kg intragastric) was 11%, the “Average Life Expectancy (M ± SEM)” value ([3]; 4.5 mg/kg intragastric) was 8.6 ± 1.2 days and the “Protective Index (PI)” value ([3]; 4.5 mg/kg intragastric) was 22%. The “Weight loss (maximum)” value ([3]; mouse, in vivo) was “up to 21.3%”, the “Solubility in water (in words)” value [4] was “substantial solubility” and the solubility at 30 min ([4]; thermodynamic from solid, distilled water, sonication, centrifugation, photometry) was 11 mM. The CC50 at 24 h [5] was 69 ± 27 µM and the EC50 (IAV) was 22.7 ± 10 µM.
